Experimental data: patent US20240116951A1, “HETEROCYCLIC COMPOUNDS AND USES THEREOF” (Kumquat Biosciences Inc., priority 2022, published 2024)

Key:
Assay type in all cases: binding
KRAS G12S = biological target: T1, KRAS G12S (Homo sapiens, UniProt P01116, G12S); test: HTRF assay of K-Ras G12S interaction with SOS1 (PPI-HTRF); conditions: 5 nM KRAS G12S, read-out: PPI-HTRF-5 nM KRAS G12S
T1 construct: made in house; host or cells: E. coli, e.g. BL21 (DE3)
How it was run: (§1)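 Equilibrium binding between GST-K-Ras and His-tagged human SOS1 is measured by FRET from a europium anti-GST donor to an XL665 anti-His acceptor. Compounds are run in duplicate at 10, 2.5, 0.63, 0.16, 0.04 and 0.01 μM, and IC50 is calculated from the 665/620 nm ratio.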

KRAS G12D = biological target: T2, KRAS G12D (Homo sapiens, UniProt P01116, G12D); test: HTRF assay of K-Ras G12D interaction with SOS1 (PPI-HTRF); conditions: HTRF, 5 nM KRAS G12D; read-out: PPI-HTRF-5 nM KRAS G12D
T2 construct: made in house; host or cells: E. coli, e.g. BL21 (DE3)
T2 sequence (P01116 1-188 isoform P01116-2 G12D): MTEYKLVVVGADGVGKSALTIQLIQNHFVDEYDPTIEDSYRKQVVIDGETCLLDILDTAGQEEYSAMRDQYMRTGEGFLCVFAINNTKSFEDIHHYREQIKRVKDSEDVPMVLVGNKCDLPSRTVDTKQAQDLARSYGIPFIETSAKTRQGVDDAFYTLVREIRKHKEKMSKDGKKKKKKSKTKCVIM
How it was run: as §1

KRAS WT = biological target: T3, KRAS WT (Homo sapiens, UniProt P01116); test: HTRF assay of wildtype K-Ras interaction with SOS1 (PPI-HTRF); conditions: HTRF, 5 nM KRAS WT; read-out: PPI-HTRF-5 nM KRAS WT
T3 construct: made in house; host or cells: E. coli, e.g. BL21 (DE3)
T3 sequence (P01116 1-188 isoform P01116-2): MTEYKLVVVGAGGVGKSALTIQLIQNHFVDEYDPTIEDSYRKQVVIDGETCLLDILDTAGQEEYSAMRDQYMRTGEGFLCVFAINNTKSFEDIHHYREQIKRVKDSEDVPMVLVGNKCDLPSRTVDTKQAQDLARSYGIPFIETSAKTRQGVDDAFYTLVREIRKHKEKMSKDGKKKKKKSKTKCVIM
How it was run: as §1

Measured: IC50

T1 sequence (P01116 1-188 isoform P01116-2 G12S): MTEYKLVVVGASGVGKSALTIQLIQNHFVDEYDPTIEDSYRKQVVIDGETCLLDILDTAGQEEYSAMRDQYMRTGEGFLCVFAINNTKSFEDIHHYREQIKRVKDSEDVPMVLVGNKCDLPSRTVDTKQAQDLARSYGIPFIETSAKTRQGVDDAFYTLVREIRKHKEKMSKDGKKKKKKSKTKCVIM

C#Cc1c(F)ccc2cc(O)cc(-c3ccc4c(N5CCC6(CCN6C(=O)n6cncn6)C5)nc(OC[C@@]56CCCN5C[C@H](F)C6)nc4c3F)c12 (stereo partly drawn) [Compound 277, (6-(7-(8-ethynyl-7-fluoro-3-hydroxynaphthalen-1-yl)-8-fluoro-2-(((2R,7aS)-2-fluorotetrahydro-1H-pyrrolizin-7a(5H)-yl)methoxy)quinazolin-4-yl)-1,6-diazaspiro[3.4]octan-1-yl)(1H-1,2,4-triazol-1-yl)methanone]
< 5 µM: all assays above

Nc1nc2c(-c3c(Cl)cc4c(N5CC6(CCN6)C5)nc(OC[C@@]56CCCN5C[C@H](F)C6)nc4c3F)ccc(F)c2s1 [Compound 259, 4-(6-chloro-8-fluoro-2-(((2R,7aS)-2-fluorotetrahydro-1H-pyrrolizin-7a(5H)-yl)methoxy)-4-(1,6-diazaspiro[3.3]heptan-6-yl)quinazolin-7-yl)-7-fluorobenzo[d]thiazol-2-amine]
< 5 µM: all assays above

N#Cc1c(N)sc2c(F)ccc(-c3c(Cl)cc4c(N5CCC6(CCCCN6C(=O)n6cncn6)C5)nc(OC[C@@]56CCCN5C[C@H](F)C6)nc4c3F)c12 (stereo partly drawn) [Compound 216, 4-(4-(6-(1H-1,2,4-triazole-1-carbonyl)-2,6-diazaspiro[4.5]decan-2-yl)-6-chloro-8-fluoro-2-(((2R,7aS)-2-fluorotetrahydro-1H-pyrrolizin-7a(5H)-yl)methoxy)quinazolin-7-yl)-2-amino-7-fluorobenzo[b]thiophene-3-carbonitrile]
< 5 µM: all assays above

Cc1cc(N)nc(-c2c(Cl)cc3c(N4CCC5(CCN5C(=O)n5cncn5)C4)nc(OC[C@@]45CCCN4C[C@H](F)C5)nc3c2F)c1C(F)(F)F (stereo partly drawn) [Compound 286, (6-(7-(6-amino-4-methyl-3-(trifluoromethyl)pyridin-2-yl)-6-chloro-8-fluoro-2-(((2R,7aS)-2-fluorotetrahydro-1H-pyrrolizin-7a(5H)-yl)methoxy)quinazolin-4-yl)-1,6-diazaspiro[3.4]octan-1-yl)(1H-1,2,4-triazol-1-yl)methanone]
< 5 µM: all assays above

C[C@H](Oc1nc(N2CCCC3(CCN3C(=O)C3CC3(F)F)C2)c2cc(Cl)c(-c3ccc(F)c4sc(N)c(C#N)c34)c(F)c2n1)[C@@H]1CCCN1C (stereo partly drawn) [Compound 223, 2-Amino-4-(6-chloro-4-(1-(2,2-difluorocyclopropane-1-carbonyl)-1,6-diazaspiro[3.5]nonan-6-yl)-8-fluoro-2-((S)-1-((S)-1-methylpyrrolidin-2-yl)ethoxy)quinazolin-7-yl)-7-fluorobenzo[b]thiophene-3-carbonitrile]
< 5 µM: all assays above

C[C@H](Oc1nc(N2CCCC3(CCN3C(=O)c3ccnn3C)C2)c2cc(Cl)c(-c3ccc(F)c4sc(N)c(C#N)c34)c(F)c2n1)[C@@H]1CCCN1C (stereo partly drawn) [Compound 282, 2-amino-4-(6-chloro-8-fluoro-4-(1-(1-methyl-1H-pyrazole-5-carbonyl)-1,6-diazaspiro[3.5]nonan-6-yl)-2-((S)-1-((S)-1-methylpyrrolidin-2-yl)ethoxy)quinazolin-7-yl)-7-fluorobenzo[b]thiophene-3-carbonitrile]
< 5 µM: all assays above

N#Cc1c(N)sc2c(F)ccc(-c3c(Cl)cc4c(N5CCC6(C5)N(C(=O)n5cncn5)CC6(F)F)nc(OC[C@@]56CCCN5C[C@H](F)C6)nc4c3F)c12 (stereo partly drawn) [Compound 283, 2-amino-4-(6-chloro-4-(3,3-difluoro-1-(1H-1,2,4-triazole-1-carbonyl)-1,6-diazaspiro[3.4]octan-6-yl)-8-fluoro-2-(((2R,7aS)-2-fluorotetrahydro-1H-pyrrolizin-7a(5H)-yl)methoxy)quinazolin-7-yl)-7-fluorobenzo[b]thiophene-3-carbonitrile]
< 5 µM: all assays above

C[C@H](Oc1nc(N2CCCC3(CCN3C(=O)n3cncn3)C2)c2cc(Cl)c(-c3ccc(F)c4sc(N)c(C#N)c34)c(F)c2n1)[C@@H]1CCCN1C (stereo partly drawn) [Compound 201, 4-(4-(1-(1H-1,2,4-triazole-1-carbonyl)-1,6-diazaspiro[3.5]nonan-6-yl)-6-chloro-8-fluoro-2-((S)-1-((S)-1-methylpyrrolidin-2-yl)ethoxy)quinazolin-7-yl)-2-amino-7-fluorobenzo[b]thiophene-3-carbonitrile]
< 5 µM: all assays above

N#Cc1c(N)sc2c(F)ccc(-c3c(Cl)cc4c(N5CCC6(COCCN6C#N)C5)nc(OC[C@@]56CCCN5C[C@H](F)C6)nc4c3F)c12 (stereo partly drawn) [Compound 302, 2-(7-(2-amino-3-cyano-7-fluorobenzo[b]thiophen-4-yl)-6-chloro-8-fluoro-2-(((2R,7aS)-2-fluorotetrahydro-1H-pyrrolizin-7a(5H)-yl)methoxy)quinazolin-4-yl)-9-oxa-2,6-diazaspiro[4.5]decane-6-carbonitrile]
< 5 µM: all assays above

N#Cc1c(N)sc2c(F)ccc(-c3c(Cl)cc4c(N5CCC6(CCN6C(=O)n6cnc(C7CC7)n6)C5)nc(OC[C@@]56CCCN5C[C@H](F)C6)nc4c3F)c12 (stereo partly drawn) [Compound 308, 2-amino-4-(6-chloro-4-(1-(3-cyclopropyl-1H-1,2,4-triazole-1-carbonyl)-1,6-diazaspiro[3.4]octan-6-yl)-8-fluoro-2-(((2R,7aS)-2-fluorotetrahydro-1H-pyrrolizin-7a(5H)-yl)methoxy)quinazolin-7-yl)-7-fluorobenzo[b]thiophene-3-carbonitrile]
< 5 µM: all assays above

Nc1nc2c(-c3c(Cl)cc4c(N5CCC6(CCN6)C5)nc(OC[C@@]56CCCN5C[C@H](F)C6)nc4c3F)ccc(F)c2s1 (stereo partly drawn) [Compound 242, 4-(6-chloro-8-fluoro-2-(((2R,7aS)-2-fluorotetrahydro-1H-pyrrolizin-7a(5H)-yl)methoxy)-4-(1,6-diazaspiro[3.4]octan-6-yl)quinazolin-7-yl)-7-fluorobenzo[d]thiazol-2-amine]
< 5 µM: all assays above

C#Cc1c(F)ccc2cc(O)cc(-c3ncc4c(N5CCC6(CCN6C(=O)n6cncn6)C5)nc(OC[C@@]56CCCN5C[C@H](F)C6)nc4c3F)c12 (stereo partly drawn) [Compound 270, (6-(7-(8-ethynyl-7-fluoro-3-hydroxynaphthalen-1-yl)-8-fluoro-2-(((2R,7aS)-2-fluorotetrahydro-1H-pyrrolizin-7a(5H)-yl)methoxy)pyrido[4,3-d]pyrimidin-4-yl)-1,6-diazaspiro[3.4]octan-1-yl)(1H-1,2,4-triazol-1-yl)methanone]
< 5 µM: all assays above

N#Cc1c(N)sc2c(F)ccc(-c3c(Cl)cc4c(N5CCC6(CCN6C(=O)n6nc(C7CC7)nc6Cl)C5)nc(OC[C@@]56CCCN5C[C@H](F)C6)nc4c3F)c12 (stereo partly drawn) [Compound 288, 2-amino-4-(6-chloro-4-(1-(5-chloro-3-cyclopropyl-1H-1,2,4-triazole-1-carbonyl)-1,6-diazaspiro[3.4]octan-6-yl)-8-fluoro-2-(((2R,7aS)-2-fluorotetrahydro-1H-pyrrolizin-7a(5H)-yl)methoxy)quinazolin-7-yl)-7-fluorobenzo[b]thiophene-3-carbonitrile]
< 5 µM: all assays above

N#Cc1c(N)sc2c(F)ccc(-c3c(Cl)cc4c(N5CCCC6(CCCN6)C5)nc(OC[C@@]56CCCN5C[C@H](F)C6)nc4c3F)c12 (stereo partly drawn) [Compound 218, 2-amino-4-(6-chloro-8-fluoro-2-(((2R,7aS)-2-fluorotetrahydro-1H-pyrrolizin-7a(5H)-yl)methoxy)-4-(1,7-diazaspiro[4.5]decan-7-yl)quinazolin-7-yl)-7-fluorobenzo[b]thiophene-3-carbonitrile]
< 5 µM: all assays above

C[C@H]1N(c2nc(OC[C@@]34CCCN3C[C@H](F)C4)nc3c(F)c(-c4ccc(F)c5sc(N)c(C#N)c45)c(Cl)cc23)CC[C@@]12CCN2C(=O)n1cnc(Cl)n1 [Compound 263, 2-amino-4-(6-chloro-4-((4R,5R)-1-(3-chloro-1H-1,2,4-triazole-1-carbonyl)-5-methyl-1,6-diazaspiro[3.4]octan-6-yl)-8-fluoro-2-(((2R,7aS)-2-fluorotetrahydro-1H-pyrrolizin-7a(5H)-yl)methoxy)quinazolin-7-yl)-7-fluorobenzo[b]thiophene-3-carbonitrile]
< 5 µM: all assays above

N#Cc1c(N)sc2c(F)ccc(-c3c(Cl)cc4c(N5CC[C@@]6(CCN6C(=O)n6cnc(CCl)n6)C5)nc(OC[C@@]56CCCN5C[C@H](F)C6)nc4c3F)c12 [Compound 322, 2-amino-4-(6-chloro-4-((R)-1-(3-(chloromethyl)-1H-1,2,4-triazole-1-carbonyl)-1,6-diazaspiro[3.4]octan-6-yl)-8-fluoro-2-(((2R,7aS)-2-fluorotetrahydro-1H-pyrrolizin-7a(5H)-yl)methoxy)quinazolin-7-yl)-7-fluorobenzo[b]thiophene-3-carbonitrile]
< 5 µM: all assays above

Nc1nc2c(-c3c(Cl)cc4c(N5CCC6(CC5)CCN6C(=O)n5cncn5)nc(OC[C@@]56CCCN5C[C@H](F)C6)nc4c3F)ccc(F)c2s1 [Compound 269, (7-(7-(2-amino-7-fluorobenzo[d]thiazol-4-yl)-6-chloro-8-fluoro-2-(((2R,7aS)-2-fluorotetrahydro-1H-pyrrolizin-7a(5H)-yl)methoxy)quinazolin-4-yl)-1,7-diazaspiro[3.5]nonan-1-yl)(1H-1,2,4-triazol-1-yl)methanone]
< 5 µM: all assays above
